From PubChem BioAssay (NCI)
Where “and” joins values, the source holds several entries; their conditions need not be identical. Identical values can stand only once.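 Values below derive from 48-hour exposures of cells grown in 96-well plates, with endpoints linearly interpolated between the two concentrations bracketing the appropriate inhibition level. Abbreviation: GI50, concentration required for 50% inhibition of growth. The concentration for full growth arrest is given as TGI.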

Experiments:
Assay in all cases: growth of human tumour cells (NCI), 48 h
HCT-116 colon = test system: HCT-116 colon
SNB-19 CNS = test system: SNB-19 CNS
HOP-92 NSCLC = test system: HOP-92 NSCLC
OVCAR-3 ovarian = test system: OVCAR-3 ovarian
U251 CNS = test system: U251 CNS
786-0 renal = test system: 786-0 renal
RPMI-8226 leukemia = test system: RPMI-8226 leukemia
OVCAR-4 ovarian = test system: OVCAR-4 ovarian
MDA-MB-231 breast = test system: MDA-MB-231 breast
PC-3 prostate = test system: PC-3 prostate

| Compound | TGI (HCT-116 colon) | TGI (SNB-19 CNS) | TGI (HOP-92 NSCLC) | TGI (OVCAR-3 ovarian) | TGI (U251 CNS) | TGI (786-0 renal) | TGI (RPMI-8226 leukemia) [µM] | TGI (OVCAR-4 ovarian) | TGI (MDA-MB-231 breast) | TGI (PC-3 prostate) | GI50 (HCT-116 colon) [µM] | GI50 (MDA-MB-231 breast) [µM] | GI50 (SNB-19 CNS) [µM] | GI50 (HOP-92 NSCLC) [µM] | GI50 (RPMI-8226 leukemia) [µM] | GI50 (PC-3 prostate) [µM] | GI50 (OVCAR-3 ovarian) [µM] | GI50 (U251 CNS) [µM] |
| --- | --- | --- | --- | --- | --- | --- | --- | --- | --- | --- | --- | --- | --- | --- | --- | --- | --- | --- |
| CCN(CC)/[N+]([O-])=N/OC | > 100 µM | > 100 µM | > 100 µM | > 100 µM | > 100 µM | – | – | – | – | – | – | – | – | – | – | – | – | – |
| COc1cccc(/C=N/[N-]C(N)=O)c1[O-].[Cu+2].[OH3+].c1cnc2c(c1)ccc1cccnc12 | 27.8 µM | 34.2 µM | 18.2 µM | 36.1 µM | 17.7 µM | 20.2 µM | 91.4 | 24.7 µM | – | – | – | – | – | – | – | – | – | – |
| CCOC(=O)C(Cc1ccc(OC(=O)c2ccc(OC)cc2OC)cc1)NC(=O)C(F)(F)F (stereo not given) | > 100 µM | > 100 µM | 55.1 µM | 36.9 µM | > 100 µM | 93.6 µM | 50.7 | 55.8 µM | > 100 µM | 48.1 µM | – | – | – | – | – | – | – | – |
| COC1OC(C(=O)CP(=O)(OC)OC)C(OCc2ccccc2)C(OCc2ccccc2)C1OCc1ccccc1 (stereo not given) | 29 µM and 30.2 µM | 29.7 µM and 30.3 µM | 37.1 µM and 34.7 µM | 30.3 µM and 28.7 µM | 29 µM and 30.3 µM | 31.3 µM and 31.4 µM | – | 28.4 µM and 36.7 µM | 31.7 µM and 29.9 µM | 28.1 µM and 28.7 µM | – | – | – | – | – | – | – | – |
| O=CC(O)C(O)C(O)COc1cc(CO)cc2c1C(=O)c1ccccc1C2=O (stereo not given) | > 100 µM | > 100 µM | > 100 µM | > 100 µM | > 100 µM | > 100 µM | > 100 | > 100 µM | – | – | – | – | – | – | – | – | – | – |
| C/C(=C\CNc1ncnc2nc(Cl)[nH]c12)CO | > 100 µM | > 100 µM | > 100 µM | > 100 µM | – | > 100 µM | > 100 | > 100 µM | > 100 µM | > 100 µM | – | – | – | – | – | – | – | – |
| CC(C)(C)OC(=O)N1C[C@H](CC(=O)OCc2ccccc2)C[C@H]1C(=O)OCC(Cl)(Cl)Cl | > 50 µM | > 50 µM | 21.5 µM | 32.9 µM | 16.1 µM | > 50 µM | – | > 50 µM | > 50 µM | > 50 µM | – | – | – | – | – | – | – | – |
| C/C=C/C=C/C1=NN(c2cccc(S(=O)(=O)O)c2)C2(C1)C(Cl)C(=O)N2c1nc2ccccc2s1 (stereo not given) | 27.7 µM | 29.9 µM | 48.2 µM | 24.7 µM | 23.8 µM | 26.7 µM | > 51.6 | 29.2 µM | 28.9 µM | 26.3 µM | – | – | – | – | – | – | – | – |
| CCOC(=O)C(C)OC(=O)c1ccc(C)cc1 (stereo not given) | > 100 µM | > 100 µM | > 100 µM | > 100 µM | > 100 µM | – | – | – | – | – | – | – | – | – | – | – | – | – |
| O=c1oc2c(ccc3occc32)c(N2CCCCC2)c1-c1ccccc1 | > 100 µM | > 100 µM | > 100 µM | > 100 µM | > 100 µM | – | – | > 100 µM | – | – | – | – | – | – | – | – | – | – |
| CCOC(=O)c1c(Nc2ccccc2)sc2cccnc12 | 46.7 µM | > 86.4 µM | > 29.3 µM | 48.7 µM | > 57.9 µM | 48.3 µM | 58.3 | 79.9 µM | > 83.5 µM | 65 µM | – | – | – | – | – | – | – | – |
| Cc1cc(N2CCOCC2)nc(N(CCCNc2ccnc3cc(Cl)ccc23)Cc2ccc3c(c2)OCO3)n1 | 1.63 µM | 35.7 µM | 3.98 µM | 0.738 µM | 2.12 µM | – | 4 | – | 3.32 µM | 3.24 µM | 0.464 | 1.68 | 4.18 | 1.56 | 1.45 | 1.62 | 0.253 | 0.936 |
| CC(C)c1ccc2c(c1)[C@@]1(C)CC[C@H](C)C(C)(C)C1CC2 (stereo not given in full) | 34.9 µM | 35.3 µM | 36.3 µM | 63 µM | – | 33.4 µM | 41.1 | 30.3 µM | 34 µM | – | – | – | – | – | – | – | – | – |
| CC1=NN(c2cccc(Cl)c2)C(=N/c2nc3ccccc3s2)/C1=C\C=C\c1ccccc1 | > 100 µM | – | – | 78.9 µM | – | > 100 µM | 81.2 | > 100 µM | – | – | – | – | – | – | – | – | – | – |
| NC(N)=NS(=O)(=O)c1ccc(Nc2c3ccccc3nc3c(C(=O)N4CCN(CCO)CC4)ccc(Cl)c23)cc1 | > 100 µM | > 100 µM | > 100 µM | > 100 µM | > 100 µM | – | > 100 | > 100 µM | – | – | – | – | – | – | – | – | – | – |
| CCOC(=O)C(=CNC(Cc1c[nH]c2ccccc12)C(=O)OC)C(=O)OCC (stereo not given) | – | > 100 µM | > 100 µM | > 100 µM | > 100 µM | – | > 100 | – | – | – | – | – | – | – | – | – | – | – |
| O=C(CSc1nc2ccc(Cl)cc2c(=O)n1-c1ccccc1)N=Nc1c(O)[nH]c2ccc(F)cc12 | 3.28 µM | 10.5 µM | 8.51 µM | 4 µM | 3.27 µM | 4.45 µM | 3.9 | 5.65 µM | 5.82 µM | 6.82 µM | – | – | – | – | – | – | – | – |
| COC(=N)C(C)C | > 100 µM | > 100 µM | > 100 µM | > 100 µM | > 100 µM | – | > 100 | > 100 µM | – | – | – | – | – | – | – | – | – | – |
| CC(C)=CCC/C(C)=C/CC/C(C)=C/[C@@H]1[C@@H](CO)[C@]1(C)CC/C=C(\C)CCC=C(C)C | > 100 µM | > 100 µM | 38.2 µM | > 100 µM | > 100 µM | 42.9 µM | 71.8 | > 100 µM | 52.2 µM | 56.5 µM | – | – | – | – | – | – | – | – |
| CC(C)(C)c1ccc(O)c(Br)c1 | > 100 µM | > 100 µM | – | > 100 µM | > 100 µM | > 100 µM | > 100 | > 100 µM | > 100 µM | > 100 µM | – | – | – | – | – | – | – | – |
| COC(=O)c1c(O)ccc2c1c1c(n2Cc2ccccn2)C(=O)c2ccccc2C1 | > 100 µM | > 100 µM | – | > 100 µM | > 100 µM | > 100 µM | 59.9 | > 100 µM | > 100 µM | 90.2 µM | – | – | – | – | – | – | – | – |
